Reference: US20230373938A1, “BENZOTHIAZOLE MEROTERPENOID COMPOUND AND DERIVATIVE THEREOF, AND PREPARATION METHOD THEREFOR AND USE THEREOF” (THIRD INSTITUTE OF OCEANOGRAPHY, MINISTRY OF NATURAL …, priority 2020, published 2023)

Assays:
[1] = biological target: T1, RXRalpha-LBD protein (Homo sapiens, UniProt P19793); assay: Biacore (surface plasmon resonance) binding to RXRalpha-LBD protein; details: Biacore T200, CM5 chip
T1 sequence (P19793 227-458 limits assumed): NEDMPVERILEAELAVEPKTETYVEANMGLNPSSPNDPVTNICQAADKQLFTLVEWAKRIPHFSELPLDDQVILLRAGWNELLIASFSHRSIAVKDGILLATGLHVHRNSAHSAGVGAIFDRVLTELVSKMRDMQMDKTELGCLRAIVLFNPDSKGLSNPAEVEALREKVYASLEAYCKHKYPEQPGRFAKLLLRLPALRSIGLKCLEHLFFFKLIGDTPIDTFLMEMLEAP
Experimental: A purified nuclear receptor RXRalpha-LBD protein is coupled with a CM5 chip of Biacore. Then the compounds to be tested are diluted with PBS to prepare solutions at different concentrations before sampling. When samples to be tested flow over the surface of the chip, the binding between biomolecules results in an increase in surface mass of a biosensor, so that refractive index changes. By monitoring angular variation of SPR, kinetic binding and dissociation constants, affinity and specificity of analytes can be automatically obtained. A BiacoreT200 detector can detect interaction between a target protein and the samples to be tested in real time, and binding strength is expressed in response unites (RU) (a change in concentration of binding substances on the chip surface by 1 pg/mm2 is defined as 1 RU). The compounds I to III are screened by Biacore technology, and a binding constant KD of small molecular compounds with RXRalpha-LBD is calculated based on a concentration gradient experiment.

[2] = biological target: T2, RXRalpha (Homo sapiens, UniProt P19793); assay: RXRalpha dual-luciferase reporter gene assay (transcriptional activity); format: cell-based; details: 293T cells, in combination with agonist 9-cis-RA; dosed 12.5, 25, 50 μM for 12 h
T2 construct: expressed in transfected cells; host or cells: Human embryonic kidney cells (293T)
T2 sequence (P19793 1-462): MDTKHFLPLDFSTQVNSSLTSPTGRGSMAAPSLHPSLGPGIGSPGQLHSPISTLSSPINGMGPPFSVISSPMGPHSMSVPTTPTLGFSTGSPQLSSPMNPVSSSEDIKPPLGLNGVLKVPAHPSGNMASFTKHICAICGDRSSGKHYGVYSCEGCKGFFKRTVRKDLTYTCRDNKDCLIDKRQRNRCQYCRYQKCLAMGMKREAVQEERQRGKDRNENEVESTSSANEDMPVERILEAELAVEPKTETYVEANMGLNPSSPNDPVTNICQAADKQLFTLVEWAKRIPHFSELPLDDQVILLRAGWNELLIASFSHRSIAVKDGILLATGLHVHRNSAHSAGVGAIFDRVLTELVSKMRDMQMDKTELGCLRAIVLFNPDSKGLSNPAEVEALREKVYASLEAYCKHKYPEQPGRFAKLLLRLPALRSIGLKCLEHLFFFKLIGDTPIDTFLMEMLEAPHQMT
Source text: In this embodiment, a dual-luciferase reporter (DLR) assay system consisting of firefly luciferase (FL) reporter gene and Rellina luciferase (RL) reporter gene is used. The RL reporter gene is used as an internal control to normalize measurement results of the FL reporter gene. In cells lacking endogenous RXRalpha and necessary components for downstream signal transduction, a receptor RXRalpha and reporter gene containing RXRalpha response elements are introduced by transfection, so as to simply simulate a transcriptional activation process of a receptor in vivo.
In this embodiment, the following three groups are set: • Negative control group: culture solution of an equal amount, 0.1% DMSO, containing cells, without the compounds as represented by formulas I to III; • Positive control group: culture solution of an equal amount, added with an RXRalpha agonist 9-cis-retinoic acid with or without an antagonist UVI3003 respectively; • Treatment group: cell culture solutions added with an RXRalpha agonist 9-cis-retinoic acid and the compounds as represented by formulas I to III respectively.
Specific steps include: • (1) Cell culture and preparation of test solution • Human embryonic kidney cells (293T) are cultured in a DMEM medium containing 10% fetal bovine serum (FBS) in an incubator containing 5% CO2 at 37° C., and passaged regularly based on growth law of the cells. […]

binding mode to RXRalpha protein [1]: fast binding and fast dissociation mode | Kd ([1]; concentration gradient, read-out: binding constant KD with RXRalpha-LBD): 12.3 µM
SMILES: C=C1CCC2C(C)(C)CCC[C@]2(C)[C@H]1Cc1cc(O)c(C)c2sc(C(=O)NCC(=O)O)nc12 (stereo partly drawn) [compound I, meroterpenthiazole A]
inhibition of the transcription of RXRalpha by 9-cis-RA [2]: inhibit the transcription of RXRalpha by 9-cis-RA in a concentration-dependent manner
